# Measurements as given in patent US6737383B1, “Herbicidal oxadiazolidines” (priority 1999, dated 2004).
# Experiments:
# [1] = system: cotton; assay: Test C postemergence cotton; format: in vivo, Gossypium hirsutum; settings: 0 to 100 scale, 0 no effect, 100 complete control
# Experimental: Compounds evaluated in this test were formulated in a non-phytotoxic solvent mixture which included a surfactant and applied to plants that were grown for various periods of time before treatment (postemergence application). A mixture of sandy loam soil and greenhouse potting mix in a 60:40 ratio was used for the postemergence test.
# Plantings of these crops and weed species were adjusted to produce plants of appropriate size for the postemergence test. All plant species were grown using normal greenhouse practices. Crop and weed species include arrowleaf sida (Sida rhombifolia), barnyardgrass (Echinochloa crus-galli), cocklebur (Xanthium strumarium), common ragweed (Ambrosia elatior), corn (Zea mays), cotton (Gossypium hirsutum), eastern black nightshade (Solanum ptycanthum), fall panicum (Panicum dichotomiflorum), field bindweed (Convolvulus arvensis), giant foxtail (Setaria faberii), hairy beggarticks (Bidens pilosa), ivyleaf morningglory (Ipomoea hederacea), johnsongrass (Sorghum halepense), ladysthumb smartweed (Polygonum persicaria), lambsquarters (Chenopodium album), large crabgrass (Digitaria sanguinalis), purple nutsedge (Cyperus rotundus), redroot pigweed (Amaranthus retroflexus), soybean (Glycine max), surinam grass (Brachiaria decumbens), velvetleaf (Abutilon theophrasti) and wild poinsettia (Euphorbia heterophylla).
# Treated plants and untreated controls were maintained in a greenhouse for approximately 14, to 21 days, after which all treated plants were compared to untreated controls and visually evaluated. Plant response ratings, summarized in Table C, were based upon a 0 to 100 scale where 0 was no effect and 100 was complete control. A dash response (−) means no test result.
# [2] = system: Johnson grass; assay: Test D Johnson grass; format: in vivo, Sorghum halepense; settings: Preemergence, 0 to 100 scale
# Method in brief: (§1)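 Each weed species is planted in its own pot or compartment; preemergence doses go on the sandy loam surface within a day. The formulation is a surfactant-containing, non-phytotoxic solvent blend. Ratings come from visual comparison with untreated controls 14 to 21 days later, where 100 means complete control.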
# [3] = system: common pursiane; assay: Test D common purslane; format: in vivo, Portulaca oleracea
# Method in brief: as §1
# [4] = system: surinam grass; assay: Test D surinam grass; format: in vivo, Brachiaria decumbens; settings: Preemergence, 0 to 100 scale
# Text: (§2) Seeds, tubers, or plant parts of Alexandergrass (Brachiaria plantaginea), bermuda-grass (Cynodon dactylon), common pursiane (Portulaca oleracea), common ragweed (Ambrosia elatior), common groundsel (Senecio vulgaris), dallisgrass (Paspalum dilatatum), goosegrass (Eleusine indica), guineagrass (Panicum maximum), itchgrass (Rottboellia exaltata), Johnson grass (Sorghum halepense), large crabgrass (Digitaria sanguinalis), pitted morningglory (Ipomoea lacunosa), purple nutsedge (Cyperus rotundus), sandbur (Cenchrus echinatus), sourgrass (Trichachne insularis), Spanishneedles (Bidens bipinnata), surinam grass (Brachiaria decumbens) and tall mallow (Malva sylvestris) were planted into greenhouse pots of flats containing greenhouse planting medium. Plant species were grown in separate pots or individual compartments. Preemergence applications were made within one day of planting the seed or plant part.
# (§3) Test chemicals were formulated in a non-phytotoxic solvent mixture which included a surfactant and applied preemergence to the surface of the pot containing seeds in a sandy loam soil. Untreated control pots and treated pots were placed in the greenhouse for growth and visually evaluated for injury 14 to 21 days after herbicide application. Plant response ratings, summarized in Table C, are based on a 0 to 100 scale where 0 is no injury and 100 is complete control. A dash (−) response means no test result.
# [5] = system: bermuda-grass; assay: Test D bermudagrass; format: in vivo, Cynodon dactylon; settings: Preemergence, 0 to 100 scale
# Method in brief: as §1
# [6] = system: Spanishneedles; assay: Test D Spanishneedles; format: in vivo, Bidens bipinnata; settings: Preemergence, 0 to 100 scale
# Text: as §2, §3
# [7] = system: itchgrass; assay: Test D itchgrass; format: in vivo, Rottboellia exaltata; settings: Preemergence, 0 to 100 scale
# Text: as §2, §3
# [8] = system: common ragweed; assay: Test D common ragweed; format: in vivo, Ambrosia elatior; settings: Preemergence, 0 to 100 scale
# Text: as §2, §3
# [9] = system: Alexandergrass; assay: Test D Alexandergrass; format: in vivo, Brachiaria plantaginea; settings: Preemergence, 0 to 100 scale
# Method in brief: as §1
# [10] = system: tall mallow; assay: Test D tall mallow; format: in vivo, Malva sylvestris; settings: Preemergence, 0 to 100 scale
# Method in brief: as §1
# [11] = system: Green foxtail; assay: Test D green foxtail; format: in vivo; settings: Preemergence, 0 to 100 scale
# Text: as §2, §3
# [12] = system: sandbur; assay: Test D sandbur; format: in vivo, Cenchrus echinatus; settings: Preemergence, 0 to 100 scale
# Text: as §2, §3
# [13] = system: pitted morningglory; assay: Test D pitted morningglory; format: in vivo, Ipomoea lacunosa; settings: Preemergence, 0 to 100 scale
# Method in brief: as §1
# [14] = system: goosegrass; assay: Test D goosegrass; format: in vivo, Eleusine indica; settings: Preemergence, 0 to 100 scale
# Method in brief: as §1
# [15] = system: dallisgrass; assay: Test D dallisgrass; format: in vivo, Paspalum dilatatum; settings: Preemergence, 0 to 100 scale
# Method in brief: as §1
# [16] = system: large crabgrass; assay: Test D large crabgrass; format: in vivo, Digitaria sanguinalis; settings: Preemergence, 0 to 100 scale
# Method in brief: as §1
# [17] = system: guineagrass; assay: Test D guineagrass; format: in vivo, Panicum maximum; settings: Preemergence, 0 to 100 scale
# Text: as §2, §3
# [18] = Rate 125 g/ha, 0 no injury, 100 complete control
smiles,measurement,setting,value
CC(C)N(C(=O)n1oc(=O)n(Cc2ccccc2)c1=O)c1ccccc1 [Compound 94],Plant response rating Cotton,[1]; Rate 140 g/ha,20
same,Plant response rating Cotton,[1]; Rate 280 g/ha,70
same,Plant response rating Cotton,[1]; Rate 560 g/ha,70
same,Plant response rating Cotton,[1]; Rate 1120 g/ha,80
same,Plant response rating Johnsongrass,[2]; [18],0
same,Plant response rating Johnsongrass,[2]; Rate 500 g/ha,20
same,"Plant response rating, C. purslane","[3]; Rate 125 g/ha, Preemergence; 0 to 100 scale, 0 no injury, 100 complete control",0
same,"Plant response rating, C. purslane","[3]; Rate 500 g/ha, Preemergence; 0 to 100 scale",10
same,"Plant response rating, C. purslane",[3]; Rate 500 g/ha; Preemergence; 0 to 100 scale,0
same,Surinam grass plant response rating,[4]; [18],80
same,Plant response rating Surinam grass,[4]; Rate 500 g/ha,90
same,"Plant response rating, Bermudagrass",[5]; [18],90
same,"Plant response rating, Bermudagrass",[5]; Rate 500 g/ha,100
same,Spanishneedles plant response rating,[6]; [18],0
same,"Plant response rating, Spanishneedles",[6]; Rate 500 g/ha,0
same,"Plant response rating, Itchgrass",[7]; [18],0
same,"Plant response rating, Itchgrass",[7]; Rate 500 g/ha,40
same,"Plant response rating, C. ragweed",[8]; [18],0
same,"Plant response rating, C. ragweed",[8]; Rate 500 g/ha,10
same,"Plant response rating, Alexandergrass",[9]; [18],50
same,"Plant response rating, Alexandergrass",[9]; Rate 500 g/ha,80
same,Tall Mallow plant response rating,[10]; [18],0
same,"Plant response rating, Tall Mallow",[10]; Rate 500 g/ha,20
same,Green foxtail plant response rating,[11]; [18],90
same,"Plant response rating, Green foxtail",[11]; [18],90
same,"Plant response rating, Green foxtail",[11]; Rate 500 g/ha,100
same,Sandbur plant response rating,[12]; [18],20
same,"Plant response rating, Sandbur",[12]; Rate 500 g/ha,100
same,"Plant response rating, P. morninglory",[13]; [18],0
same,"Plant response rating, P. morninglory",[13]; Rate 500 g/ha,0
same,"Plant response rating, Goosegrass",[14]; [18],85
same,"Plant response rating, Goosegrass",[14]; Rate 500 g/ha,100
same,"Plant response rating, Dallisgrass",[15]; [18],98
same,"Plant response rating, Dallisgrass",[15]; Rate 500 g/ha,100
same,Plant response rating Large crabgrass,[16]; [18],98
same,Plant response rating Large crabgrass,[16]; Rate 500 g/ha,100
same,"Plant response rating, Guineagrass",[17]; [18],0
same,"Plant response rating, Guineagrass",[17]; Rate 500 g/ha,100
